From patent publication US9452185B2, “Mesenchymal stem cells and supports for tissue regeneration, repair and reconstruction” (THE TEXAS A&M UNIVERSITY SYSTEM, priority 2009, dated 2016)

Tested on: hMSCs
Assay: Membrane integrin expression by flow cytometric analysis
Format: cell-based, human
Design: CD49a x-mean / CD49b x-mean / CD49c x-mean / CD49e x-mean / CD51 x-mean / CD29 x-mean / CD36 x-mean / CD44 x-mean: unit not given here
Procedure: For immunophenotyping, MSCs were recovered by brief trypsinization and incubated with one or more fluorophore-tagged antibodies or respective isotype controls for 30 min in a phosphate-buffered saline (PBS) containing 2% (v/v) FBS. After about three washes, a minimum of 20,000 cells were analyzed on a flow cytometer and data processed using machine-compatible software. Antibodies against the following cell surface antigens were used, including CD11b (clone BEAR1), CD14 (RM052), CD19 (J3-119), CD29 (MAR4), CD34 (581), CD36 (FA6.152), CD44 ([…]-26), CD45 (J.33), CD49a (SR84), CD49b (Gi9), CD49c (C3 II.1), CD49e (IIA1), CD51 (23C6), CD73 (AD2), CD79a (HM47), CD90 (Thy-1/310), CD105 (IG2), CD146 (TEA1/34), CD166 (3[…] (Tu39).

What does the source list for `O=C(Nc1ccccc1)c1cc([N+](=O)[O-])ccc1Cl` [GW9662, 2-chloro-5-nitro-N-phenyl-benzamide]?
CD29 % pos (GW-treatment): 99.97%; CD29 x-mean (GW-treatment): 135; CD36 % pos (GW-treatment): 0.68%; CD36 x-mean (GW-treatment): 1.89; CD44 % pos (GW-treatment): 96.24%; CD44 x-mean (GW-treatment): 7.84; CD49a % pos (GW-treatment): 87.07%; CD49a x-mean (GW-treatment): 3.28; CD49b % pos (GW-treatment): 43.09%; CD49b x-mean (GW-treatment): 5.69; CD49c % pos (GW-treatment): 99.93%; CD49c x-mean (GW-treatment): 21.80; CD49e % pos (GW-treatment): 99.99%; CD49e x-mean (GW-treatment): 81.50; CD51 % pos (GW-treatment): 99.92%; CD51 x-mean (GW-treatment): 15.30; CD36 on the surface of hMSCs (irrespective of GW9662 treatment): No substantial expression
